Experimental data as given in patent EP0119450A1, “Preparation of aminopyrazolines and intermediates used therein” (THE WELLCOME FOUNDATION LIMITED, priority 1983, dated 1984).

Legend:
[1] = target: Cyclooxygenase; assay: Enzyme assay, inhibition of cyclooxygenase (method based on Borgeat et al); type: biochemical
[2] = target: Lipoxygenase; assay: Enzyme assay, inhibition of lipoxygenase (method based on Borgeat et al); type: biochemical
[3] = Storage stability at normal room temperature in sealed containers, analysed by T.l.c.; type: physicochemical; conditions: freshly prepared samples, T.l.c. at regular intervals
Description: Freshly prepared samples of the compound of Example 29/30B and the compound 2B (the latter also being disclosed in European Specification 55 418) were stored separately at normal room temperature in sealed containers and analysed at regular intervals by T.l.c.

[4] = system: total leucocyte numbers; assay: Leucocyte accumulation in carrageenin sponge exudates; type: in vivo; conditions: Rattus norvegicus, po, male rats, carrageenin sponge exudate collected at 24 hours
Description: (§1) The compound of Example 29/3UB was subjected to the following tests. Results are given in Table II as ED50 mg/kg upon oral administration.
(§2) Inflammatory exudates were collected 24 hours after the subcutaneous implantation in male rats (180-220g) of sterile polyester sponges impregnated with 2% carrageenin. Prostaglandin E2 concentrations in sponge exudates were measured by bioassay and total leucocyte numbers were estimated using counting chambers and phase contrast microscopy. Drugs were administered orally in aqueous solution to groups of five animals at the time of sponge implantation, 5-8 hours later and 3 hours before sponge removal. Results are expressed as a percentage of control values obtained from similar groups of animals receiving vehicle alone. ED50 values were calculated for active compounds. The full dose-response data for lead compounds were subjected to regression analysis and ED50 values with 95% confidence limits were obtained.

[5] = system: female rats; assay: Carrageenin-induced paw oedema; type: in vivo; conditions: Rattus norvegicus, po, swelling measured 1-4 hours after carrageenin
Description: as §1
Oedema was induced by the sub-plantar injection of 2% carrageenin (0.1 ml) in the hind paws of female rats (100-130g). Swelling was measured 1-4 hours following carrageenin injection using a micrometer gauge. Drugs in aqueous solution were administered orally to groups of five rats at the time of carrageenin injection. Mean swelling was expressed as a percentage of control values obtained from similar groups of animals receiving vehicle alone.

[6] = system: female mice; assay: Phenylbenzoquinone (PBQ) induced writhing; type: in vivo; conditions: Mus musculus, po, p.o. 1 hour before PBQ 2.5 mg/kg i.p.
Description: as §1
Writhing was induced in groups of 5 female mice (20-25g) following the intraperitoneal injection of phenylbenzoquinone (PBQ; 2.5 mg/kg). Anti- nociceptive effects of drugs were assessed by observing the reduction in writhing responses 10-12½ min after PBQ injection. Drugs were administered orally in aqueous solution 1 hour before PBQ injection and drug effects were expressed as a percentage of control values obtained from animals receiving vehicle alone.

[7] = system: Prostaglandin E2; assay: Prostaglandin synthesis in carrageenin sponge exudates; type: in vivo; conditions: Rattus norvegicus, po; male rats, carrageenin sponge exudate collected at 24 hours; read-out: ED50 Prostaglandin Production (rat)
Description: as §1, §2

| IC50 [1] [µM] | IC50 [2] [µM] | Structure (SMILES) | further results |
| --- | --- | --- | --- |
| 2 | 1.5 | O=CN(CC=Cc1ccccc1)C1=NN(c2cccc(C(F)(F)F)c2)CC1 [Example 9A, N-(cinnamyl)-N-[1-(3-trifluoromethylphenyl)-2-pyrazolin-3-yl]formamide] | – |
| 1 | 1 | CC(=O)N(C)C1=NN(c2ccc(Br)c(C(F)(F)F)c2)CC1 [Example 45, N-methyl-N-[1-(4-bromo-3-trifluoromethylphenyl)-2-pyrazolin-3-yl]acetamide] | – |
| 5 | 2 | C=CCN(C=O)C1=NN(c2cccc(C(F)(F)F)c2)CC1 [Example 3A, N-(2-propenyl)-N-[1-(3-trifluoromethylphenyl)-2-pyrazolin-3-yl]formamide] | – |
| 1 | 1 | CC(=O)N(C)C1=NN(c2cccc(C(F)(F)F)c2)CC1 [29&30B, N-methyl-N-[1-(3-trifluoromethylphenyl)-2-pyrazolin-3-yl] acetamide] | decomposition on storage [3]: no significant decomposition, 2 years from the outset of the Experiment; ED50 [4]: 57 mg/kg; ED50 [5]: 15 mg/kg; ED50 [6]: 45 mg/kg; ED50 [7]: 35 mg/kg |
| > 10 | 1 | CCC(=O)N(C)C1=NN(c2cccc(C(F)(F)F)c2)CC1 [Example 32, N-methyl-N-[1-(3-trifluoromethylphenyl)-2-pyrazolin-3-yl]propionamide] | – |
| 10 | 1 | CCCN(C=O)C1=NN(c2cccc(C(F)(F)F)c2)CC1 [Example 5A, N-(n-propyl)-N-[1-(3-trifluoromethylphenyl)-2-pyrazolin-3-yl]-formamide] | – |
| 8 | 2 | O=CN(CC1CC1)C1=NN(c2cccc(C(F)(F)F)c2)CC1 [Example 8A, N-(cyclopropylmethyl)-N-[1-(3-trifluoromethylphenyl)-2-pyrazolin-3-yl]formamide] | – |
| 2 | 5 | O=CN(Cc1ccc(F)cc1)C1=NN(c2ccc(Br)c(C(F)(F)F)c2)CC1 [Example 18B, N-[1-(4-bromo-3-trifluoromethylphenyl)-2-pyrazolin-3-yl]-N-(4-fluorobenzyl)formamide] | – |
| – | – | CNC1=NN(c2cccc(C(F)(F)F)c2)CC1 [Example 2B, 3-methylamino-1-(3-trifluoromethylphenyl)-2-pyrazoline] | decomposition on storage [3]: significant decomposition after six months |
| 3 | 0.5 | C#CCN(C=O)C1=NN(c2cccc(C(F)(F)F)c2)CC1 [Example 4A, N-(2-propynyl)-N-[1-(3-trifluoromethylphenyl)-2-pyrazolin-3-yl]formamide] | – |
| 10 | 3 | O=CN(CC=CCCl)C1=NN(c2cccc(C(F)(F)F)c2)CC1 [Example 34] | – |
